Experiment [1] relates to fungal cultures (Candida albicans & Cryptococcus neoformans). The experiment can be described thus: Kirby-Bauer disc diffusion, fungi. Format: cell-based. Background: Agar diffusion results depend on both activity and mobility in agar.
The test system of experiment [2] is Male Wistar rats. The experiment can be described thus: Eddy Hot Plate method. As to conditions: 0.5 mg/kg and 1 mg/kg s.c., 55±0.5° C., compared to pentazocine 20 mg/kg s.c. The class given is in vivo. On the procedure:
Male Wistar rats initially weighing 180-200 g were divided into the following groups of six animals each as follows: • Experiment-I: • 1. Group-I: Control—10% Dimethyl sulfoxide (DMSO) (0.5 ml s.c) • 2. Group-II: Standard—Pentazocine (20 mg/kg body weight, s.c.) • 3. Group-III: Compound-ARP100102 (0.5 mg/kg body weight, s.c.) • Experiment-II: • Same as Experiment I except Group III dosage was 1 mg/kg body weight. • The hot plate method was originally developed by Woolfe and MacDonald (1944). The paws of rat are very sensitive to heat at temperatures which are not damaging to the skin. The response is in the form of jumping, withdrawal of paws or licking of the paws (Eddy and Leimback, 1953). The animals were placed on Eddy's hot plate at a temperature of 55±0.5° C. […] Reaction time and the type of response were noted using a stopwatch. The latency was recorded before and after 30, 60, 90 and 120 minutes following s.c. injection of test compounds (0.5 mg and 1 mg·kg), standard drug (pentazocine) and control vehicle respectively. The dose selection of the test compounds was based on the literature of nicotine (0.32-1.6 mg/kg s.c.). Average reaction time was then calculated and the percentage variation calculated using the following ratio: Percentage protection=Drug latency−Baseline latency×100Baseline latency

The subject of experiment [3] is Corynebacterium. The experiment is described as follows: Kirby Bauer disc diffusion, Corynebacterium. Format: cell-based.
In experiment [4] the test system is Streptococcus mutans. The experiment can be described thus: Kirby Bauer disc diffusion, Streptococcus mutans. Format: cell-based.
Experiment [5] relates to M. tuberculosis (H37RV Strain) ATCC 25177. The experiment can be described thus: Anti-TB activity, microplate Alamar Blue assay (MABA). The class given is cell-based, Mycobacterium Tuberculosis. As to conditions: for MIC: Mycobacterium tuberculosis, 120 h, read-out: MIC (minimum inhibition concentration); for MIC (minimum inhibition concentration): lowest drug concentration preventing colour change blue to pink, 37° C., five days, tested 100 to 0.2 μg/ml. Background: Resazurin is reduced to fluorescent resorufin, in cell work by metabolically active cells.

The test system of experiment [6] is Gram positive bacteria (Staphylococcus aureus, Enterococcus faecalis), Gram negative bacteria (E. Coli and Pseudomonas aeruginosa). The experiment is described as follows: Kirby-Bauer disc diffusion, bacteria. The class given is cell-based.
Experiment [7] deals with Male Albino Mice. The experiment can be described thus: Acetic Acid-Induced Writhing Response test. Format: in vivo. Here is the method:
Group-I: Control-Normal saline (0.1 ml i.p./10 gm) • 2. Group-II: Diclofenac (10 mg/kg body weight, i.p.) • 3. Group-V: Compound-ARP100120 (3 mg/kg body weight, i.p.) • The number of writhes (abdominal muscular contractions), stretching of the hind limbs and trunk twisting were counted 5 minutes after the injection of 1% acetic acid (v/v, 0.1 mL/10 g body weight, i.p.). The data collected represented the total number of writhes observed in duration of 10 minutes (5-15 minutes after the injection). Percentage inhibition was then calculated. Percentage inhibition ═(N−N^t/N)×100, where N is the average number of writhing of control group and N^t is the average number of writhing of test group. • Results are as follows: […]
Background: In writhing tests, fewer writhes than in controls are read as antinociception.

Structures are written as SMILES. Values after ≈ are worked out from the molar mass of the structure shown.

With `CC(=O)c1ccc(-c2cncc(C(=O)C3CCN(C)C3=O)c2)s1` (stereo not shown) [ARP100101, 3-(5-(5-acetylthiophen-2-yl)nicotinoyl)-1-methylpyrrolidin-2-one], the “antifungal activity (zone of inhibition, disc diffusion)” value in experiment [1] (50 μg) and in experiment [1] (100 μg) was “exhibit antifungal activity” in each case.

Take `CN1CCC(C(=O)c2cncc(-c3ccc(F)cc3)c2)C1=O` (stereo not shown) [ARP100102, 3-(5-(4-fluorophenyl)nicotinoyl)-1-methylpyrrolidin-2-one]: the “analgesic activity (reaction time in hot plate test)” value in experiment [2] is recorded as “demonstrate analgesic activity”. The “antibacterial activity against Corynebacterium (inhibition zone)” value in experiment [3] (50 μg) and in experiment [3] (100 μg) was “good antibacterial activity” throughout. The “antifungal activity (zone of inhibition, disc diffusion)” value in experiment [1] (5 μg), in experiment [1] (25 μg), in experiment [1] (50 μg) and in experiment [1] (100 μg) was “exhibit antifungal activity” each time. Further, the “antibacterial activity against Streptococcus mutans (inhibition zone)” value in experiment [4] (50 μg) and in experiment [4] (100 μg) was “good antibacterial activity” in each case. Besides, the MIC in experiment [5] is at most 0.05 µg/mL.

With `Cc1cccc(-c2cncc(C(=O)C3CCN(C)C3=O)c2)c1` (stereo not shown) [ARP100104, 1-methyl-3-(5-m-tolylnicotinoyl)pyrrolidin-2-one], the “antifungal activity (zone of inhibition, disc diffusion)” value in experiment [1] (100 μg) was “exhibit antifungal activity”.

With `CN1CCC(C(=O)c2cncc(-c3ccc(Cl)cc3)c2)C1=O` (stereo not shown) [ARP100105, 3-(5-(4-chlorophenyl)nicotinoyl)-1-methylpyrrolidin-2-one], the “antifungal activity (zone of inhibition, disc diffusion)” value in experiment [1] (50 μg) was “both antibacterial and antifungal activity”; in experiment [1] (100 μg) it was “both antibacterial and antifungal activity”. The “antibacterial activity (zone of inhibition, disc diffusion)” value in experiment [6] (50 μg) was “both antibacterial and antifungal activity”; in experiment [6] (100 μg) it was “both antibacterial and antifungal activity”.

As for `CN1CCC(C(=O)c2cncc(-c3ccc(C=O)cc3)c2)C1=O` (stereo not shown) [ARP100106, 4-(5-(1-methyl-2-oxopyrrolidine-3-carbonyl)pyridin-3-yl)benzaldehyde], in experiment [1] (100 μg), the “antifungal activity (zone of inhibition, disc diffusion)” value was “both antibacterial and antifungal activity”. Also, the “antibacterial activity (zone of inhibition, disc diffusion)” value in experiment [6] (100 μg) is “both antibacterial and antifungal activity”.

As for `COc1ccc(-c2cncc(C(=O)C3CCN(C)C3=O)c2)cc1` (stereo not shown) [ARP100108, 3-(5-(4-methoxyphenyl)nicotinoyl)-1-methylpyrrolidin-2-one], the “antifungal activity (zone of inhibition, disc diffusion)” value in experiment [1] (100 μg) is “exhibit antifungal activity”.

As for `CN1CCC(C(=O)c2cncc(-c3cccc(F)c3)c2)C1=O` (stereo not shown) [ARP100111, 3-(5-(3-fluorophenyl)nicotinoyl)-1-methylpyrrolidin-2-one], in experiment [6] (100 μg), the “antibacterial activity on both gram positive and gram negative bacteria” value is listed as “showed antibacterial activity”.

For the molecule `CN1CCC(C(=O)c2cncc(-c3ccc4ccccc4c3)c2)C1=O` (stereo not shown) [ARP100119, 1-methyl-3-(5-(naphthalen-2-yl)nicotinoyl)pyrrolidin-2-one], the “antifungal activity (zone of inhibition, disc diffusion)” value in experiment [1] (50 μg) and in experiment [1] (100 μg) was “exhibit antifungal activity” in each case.

Take `CC(=O)Oc1ccc(-c2cncc(C(=O)C3CCN(C)C3=O)c2)cc1` (stereo not shown) [ARP100120, 4-(5-(1-methyl-2-oxopyrrolidine-3-carbonyl)pyridin-3-yl)phenyl acetate]: the “antifungal activity (zone of inhibition, disc diffusion)” value in experiment [1] (100 μg) is reported as “exhibit antifungal activity”. Besides, the “analgesic activity (writhing test)” value in experiment [7] (3 mg/kg i.p.) was “demonstrate analgesic activity”.

`CN1CCC(C(=O)c2cncc(-c3cccc(C=O)c3)c2)C1=O` (stereo not shown) [ARP100121, 3-(5-(1-methyl-2-oxopyrrolidine-3-carbonyl)pyridin-3-yl)benzaldehyde]: the “antifungal activity (zone of inhibition, disc diffusion)” value in experiment [1] (50 μg) and in experiment [1] (100 μg) was “exhibit antifungal activity” in each case.

On to `CCCCc1cncc(C(=O)C2CCN(C)C2=O)c1` (stereo not shown) [ARP100122, 3-(5-butylnicotinoyl)-1-methylpyrrolidin-2-one], for which the “antifungal activity (zone of inhibition, disc diffusion)” value in experiment [1] (100 μg) is given as “exhibit antifungal activity”.

Turning to `O=C(O)c1cn(C2CC2)c2cc(N3CCNCC3)c(F)cc2c1=O` [Ciprofolxacin], the “MIC (minimum inhibition concentration)” value in experiment [5] was 3.125 µg/mL (≈ 9.43 µM).

Regarding `O=C(O)Cc1ccccc1Nc1c(Cl)cccc1Cl` [Diclofenac, reference compound], the “Number of Writhing” value in experiment [7] (5-15 minutes after 1% acetic acid i.p., Diclofenac 10 mg/kg i.p., ARP100120 3 mg/kg i.p.) is given as 34.50 ± 1.586. Also, the “Percentage Inhibition (writhing)” value in experiment [7] (versus control, Diclofenac 10 mg/kg i.p., ARP100120 3 mg/kg i.p.) is reported as 26.86%.

Regarding `CN1CCCC1c1cccnc1` (stereo not shown) [Nicotine], the “antibacterial activity (disc diffusion)” value in experiment [6] (1000 μg/ml) was “did not show any antibacterial activity”.

With `NC(=O)c1cnccn1` [Pyrazinamide], in experiment [5], the MIC was 3.12 µg/mL (≈ 25.4 µM).

On to `CN[C@@H]1[C@H](O[C@H]2[C@H](O[C@H]3[C@H](O)[C@@H](O)[C@H](N=C(N)N)[C@@H](O)[C@@H]3N=C(N)N)O[C@@H](C)[C@]2(O)C=O)O[C@@H](CO)[C@H](O)[C@H]1O` [Steptomycin], for which the “MIC (minimum inhibition concentration)” value in experiment [5] is 6.25 µg/mL (≈ 10.7 µM).

The values are drawn from patent US8835640B1, “Nicotine derivatives” (priority 2011, dated 2014).
